Tested on: patients with advanced solid tumors
Assay: phase I dose escalation: safety, DLT, MTD, RP2D (CTCAE v. 5)
Assay type: in vivo
Excerpt: Subsequent dosing cohorts were enrolled using a standard 3 + 3 design.
If any patient in any cohort of three patients developed a DLT during cycle 1, an additional three patients were recruited to expand the cohort to up to six evaluable patients. If two or more patients in any expanded cohort developed a DLT, this dose was considered non-tolerated, and dose escalation was discontinued. The MTD was defined as the highest dose level for which no more than one of six patients experienced a DLT.
Patients were continuously evaluated for adverse events throughout the study using the Common Terminology Criteria of Adverse Events (CTCAE v. 5). The patients underwent a clinical history and physical examination, an ECOG PS, a complete blood count (CBCs), chemistry, coagulation studies, urinalysis, a serum pregnancy test (as applicable), a triplicate ECG, an ophthalmology examination, and baseline tumor assessment at screening. During cycle 1, weekly history and physical examination, CBC, chemistry, coagulation parameters, urinalysis, and triplicate ECGs were performed; in subsequent cycles, weekly labs were limited to a CBC. Repeat ophthalmology examinations were performed at cycle 3, day 1, and at the end of treatment. Repeat tumor assessment was performed every 2 cycles (6 weeks) in accordance with RECIST 1.1.

[1] = All 4:3 Patients (n = 20), All Grades

SMILES: CC(C)[C@H](N)C(=O)SCC/C=C/[C@@H]1CC(=O)NCc2nc(cs2)C(=O)NC(C)(C)C(=O)N[C@@H](C(C)C)C(=O)O1 [OKI-179, Bocodepsin]
- TEAE: Platelet count decreased (5:2, 300 mg (N=6), G2): 0 N (%)
- TEAE: Pneumonitis (5:2, 300 mg (N=6), G2): 1 (17) N (%)
- TEAE: Pneumothorax (5:2, 300 mg (N=6), G2): 0 N (%)
- TEAE: Vomiting (5:2, 300 mg (N=6), G2): 1 (17) N (%)
- TEAE: Abdominal pain (5:2, 300 mg (N=6), G3): 0 N (%)
- TEAE: Anemia (5:2, 300 mg (N=6), G3): 1 (17) N (%)
- TEAE: Aspartate aminotransferase increased (5:2, 300 mg (N=6), G3): 0 N (%)
- TEAE: Back pain (5:2, 300 mg (N=6), G3): 1 (17) N (%)
- TEAE: Bile duct stenosis (5:2, 300 mg (N=6), G3): 1 (17) N (%)
- TEAE: Blood alkaline phosphatase increased (5:2, 300 mg (N=6), G3): 0 N (%)
- TEAE: Decreased appetite (5:2, 300 mg (N=6), G3): 1 (17) N (%)
- TEAE: Dehydration (5:2, 300 mg (N=6), G3): 0 N (%)
- TEAE: Dysphagia (5:2, 300 mg (N=6), G3): 0 N (%)
- TEAE: ECG QT prolonged (5:2, 300 mg (N=6), G3): 0 N (%)
- TEAE: Enterococcal bacteremia (5:2, 300 mg (N=6), G3): 1 (17) N (%)
- TEAE: Esophagitis (5:2, 300 mg (N=6), G3): 0 N (%)
- TEAE: Esophagoscopy (5:2, 300 mg (N=6), G3): 0 N (%)
- TEAE: Eye pain (5:2, 300 mg (N=6), G3): 0 N (%)
- TEAE: Fatigue (5:2, 300 mg (N=6), G3): 0 N (%)
- TEAE: Gastritis (5:2, 300 mg (N=6), G3): 0 N (%)
- TEAE: Hypomagnesaemia (5:2, 300 mg (N=6), G3): 0 N (%)
- TEAE: Myalgia (5:2, 300 mg (N=6), G3): 0 N (%)
- TEAE: Nausea (5:2, 300 mg (N=6), G3): 1 (17) N (%)
- TEAE: Neutrophil count decreased (5:2, 300 mg (N=6), G3): 0 N (%)
- TEAE: Oropharyngeal pain (5:2, 300 mg (N=6), G3): 0 N (%)
- TEAE: Pain in extremity (5:2, 300 mg (N=6), G3): 0 N (%)
- TEAE: Paresthesia (5:2, 300 mg (N=6), G3): 0 N (%)
- TEAE: Platelet count decreased (5:2, 300 mg (N=6), G3): 0 N (%)
- TEAE: Pneumonitis (5:2, 300 mg (N=6), G3): 0 N (%)
- TEAE: Pneumothorax (5:2, 300 mg (N=6), G3): 1 (17) N (%)
- TEAE: Vomiting (5:2, 300 mg (N=6), G3): 0 N (%)
- TEAE: Fatigue (5:2 cohort, 300 mg): 67%
- TEAE: Nausea (5:2 cohort, 300 mg): 83%
- TEAE: Vomiting (5:2 cohort, 300 mg): 50%
- TEAE: decreased platelet count (5:2 cohort, 300 mg): 67%
- TEAE: Anemia [1]: 8 (40) n (%)
- TEAE: Back pain [1]: 4 (20) n (%)
- TEAE: Cough [1]: 4 (20) n (%)
- TEAE: Decreased appetite [1]: 7 (35) n (%)
- TEAE: Diarrhea [1]: 5 (25) n (%)
- TEAE: Dyspnea [1]: 3 (15) n (%)
- TEAE: ECG QT prolonged [1]: 4 (20) n (%)
- TEAE: Fatigue [1]: 8 (40) n (%)
- TEAE: Headache [1]: 3 (15) n (%)
- TEAE: Hypokalaemia [1]: 3 (15) n (%)
- TEAE: Muscular weakness [1]: 4 (20) n (%)
- TEAE: Nasal congestion [1]: 3 (15) n (%)
- TEAE: Platelet count decreased [1]: 6 (30) n (%)
- TEAE: Proteinuria [1]: 3 (15) n (%)
- TEAE: Pyrexia [1]: 4 (20) n (%)
- TEAE: Vomiting [1]: 6 (30) n (%)
- TEAE: Weight decreased [1]: 3 (15) n (%)
- TEAE: Anemia (All 4:3 Patients (n = 20), G1): 1 (5) n (%)
- TEAE: Back pain (All 4:3 Patients (n = 20), G1): 3 (15) n (%)
- TEAE: Cough (All 4:3 Patients (n = 20), G1): 3 (15) n (%)
- TEAE: Decreased appetite (All 4:3 Patients (n = 20), G1): 4 (20) n (%)
- TEAE: Diarrhea (All 4:3 Patients (n = 20), G1): 5 (25) n (%)
- TEAE: Dyspnea (All 4:3 Patients (n = 20), G1): 3 (15) n (%)
- TEAE: ECG QT prolonged (All 4:3 Patients (n = 20), G1): 1 (5) n (%)
- TEAE: Fatigue (All 4:3 Patients (n = 20), G1): 3 (15) n (%)
- TEAE: Headache (All 4:3 Patients (n = 20), G1): 3 (15) n (%)
- TEAE: Hypokalaemia (All 4:3 Patients (n = 20), G1): 1 (5) n (%)
- TEAE: Muscular weakness (All 4:3 Patients (n = 20), G1): 1 (5) n (%)
- TEAE: Nasal congestion (All 4:3 Patients (n = 20), G1): 3 (15) n (%)
- TEAE: Nausea (All 4:3 Patients (n = 20), G1): 9 (45) n (%)
- TEAE: Platelet count decreased (All 4:3 Patients (n = 20), G1): 4 (20) n (%)
- TEAE: Proteinuria (All 4:3 Patients (n = 20), G1): 0 n (%)
- TEAE: Pyrexia (All 4:3 Patients (n = 20), G1): 3 (15) n (%)
- TEAE: Vomiting (All 4:3 Patients (n = 20), G1): 5 (25) n (%)
- TEAE: Weight decreased (All 4:3 Patients (n = 20), G1): 2 (10) n (%)
- TEAE: Anemia (All 4:3 Patients (n = 20), G2): 2 (10) n (%)
- TEAE: Back pain (All 4:3 Patients (n = 20), G2): 0 n (%)
- TEAE: Cough (All 4:3 Patients (n = 20), G2): 1 (5) n (%)
- TEAE: Decreased appetite (All 4:3 Patients (n = 20), G2): 3 (15) n (%)
- TEAE: Diarrhea (All 4:3 Patients (n = 20), G2): 0 n (%)

From article PMC10778198, “First-in-Human Dose-Escalation Study of the Novel Oral Depsipeptide Class I-Targeting HDAC Inhibitor Bocodepsin (OKI-179) in Patients with Advanced Solid Tumors” (Cancers, 2023)
